Data taken from ChEMBL document CHEMBL4673333, “Bioactive Limonoids and Triterpenoids from the Fruits of Melia azedarach” (J Nat Prod, 2020).
The source made the active and inactive calls. The calls are words filed in the database; no cut-off is given here.

Columns and labels:
Type in all cases: functional, cell-based
[1] = test system: Bel-7402; test: Cytotoxicity against human Bel-7402 cells assessed as reduction in cell viability by CCK8 assay
[2] = test system: HT-29; test: Cytotoxicity against human HT-29 cells assessed as reduction in cell viability by CCK8 assay
[3] = test system: HCT-116; test: Cytotoxicity against human HCT-116 cells assessed as reduction in cell viability by CCK8 assay
[4] = test system: U-251; test: Cytotoxicity against human U-251 cells assessed as reduction in cell viability by CCK8 assay
[5] = test system: A549; test: Cytotoxicity against human A549 cells assessed as reduction in cell viability by CCK8 assay

| SMILES | Activity [1] | Activity [2] | Activity [3] | Activity [4] | Activity [5] | IC50 [3] [µM] |
| --- | --- | --- | --- | --- | --- | --- |
| COC(=O)C[C@H]1[C@]2(C)C3=C(C)[C@H](c4ccoc4)C[C@H]3O[C@@H]2[C@@H]2OC[C@]3(C)[C@H](OC(=O)c4ccccc4)C[C@H](OC(=O)/C=C/c4ccccc4)[C@@]1(C)[C@@H]23 | inactive | inactive | inactive | inactive | inactive |  |
| C/C=C(\C)C(=O)O[C@H]1C[C@@H](OC(=O)c2ccccc2)[C@@]2(C)CO[C@H]3[C@H]4O[C@@H]5C[C@@H](c6ccoc6)C(C)=C5[C@@]4(C)[C@H](CC(=O)OC)[C@]1(C)[C@@H]32 | inactive | inactive | inactive | inactive | inactive |  |
| CC(=O)O[C@H](C(=O)C=C(C)C)[C@H](C)[C@@H]1CC[C@]2(C)C3=CC[C@H]4C(C)(C)C(=O)CC[C@]4(C)[C@H]3C[C@@H](O)[C@@]12C | inactive | inactive |  | inactive | inactive | 5.9 |
| CO[C@H]1O[C@@H]([C@H](O)C(C)(C)O)C[C@H]1[C@@H]1CC[C@]2(C)C3=CC[C@H]4C(C)(C)[C@@H](O)CC[C@]4(C)[C@H]3CC[C@@]12C | inactive | inactive | inactive | inactive | inactive |  |
| C=C(C)C(=O)O[C@@H]1[C@@H]2OC[C@]3(C)[C@H](OC(C)=O)C[C@H](OC(C)=O)[C@@](C)([C@@H]23)[C@@H](CC(=O)OC)[C@]1(C)C1=C(C)[C@H](c2ccoc2)C[C@@H]1OC | inactive | inactive | inactive | inactive | inactive |  |
| COC(=O)C[C@H]1[C@](C)(C2=C(C)[C@H](c3ccoc3)C[C@@H]2OC)[C@H](OC(=O)c2ccccc2)[C@@H]2OC[C@]3(C)[C@H](OC(C)=O)C[C@H](OC(C)=O)[C@@]1(C)[C@@H]23 | inactive | inactive | inactive | inactive | inactive |  |
| C/C=C(\C)C(=O)O[C@@H]1[C@@H]2OC[C@]3(C)[C@H](OC(C)=O)C[C@H](OC(C)=O)[C@@](C)([C@@H]23)[C@@H](CC(=O)OC)[C@]1(C)C1=C(C)[C@H](c2ccoc2)C[C@@H]1OC | inactive | inactive | inactive | inactive | inactive |  |
| C/C=C(\C)C(=O)O[C@@H]1[C@@H]2OC[C@]3(C)[C@H](OC(C)=O)C[C@H](OC(C)=O)[C@@](C)([C@@H]23)[C@@H](CC(=O)OC)[C@]1(C)C1=C(C)[C@H](c2ccoc2)C[C@H]1OC | inactive | inactive | inactive | inactive | inactive |  |
| C/C=C(\C)C(=O)O[C@H]1C[C@@H](O)[C@@](C)(C=O)[C@@H]2[C@@H](OC(C)=O)[C@H]3O[C@@H]4C[C@@H](c5ccoc5)C(C)=C4[C@@]3(C)[C@H](CC(=O)OC)[C@@]12C | inactive | inactive | inactive | inactive | inactive |  |
| C/C=C(\C)C(=O)O[C@@H]1C[C@H](OC(=O)/C=C/c2ccccc2)[C@@]2(C)[C@H]3[C@@H](OC[C@]13C)[C@H]1O[C@@H]3C[C@@H](c4ccoc4)C(C)=C3[C@@]1(C)[C@@H]2CC(=O)OC | inactive | inactive | inactive | inactive | inactive |  |
| CC(C)=CCC[C@@H](C(=O)O)[C@@H]1[C@@H](O)C[C@]2(C)C3=CC[C@H]4C(C)(C)[C@@H](O)CC[C@]4(C)[C@H]3C[C@@H](O)[C@@]12C | inactive | inactive | inactive | inactive | inactive |  |
| C/C=C(\C)C(=O)O[C@@H]1[C@@H]2OC[C@]3(C)[C@H](OC(C)=O)C[C@H](OC(C)=O)[C@@](C)([C@@H]23)[C@H]2C[C@H](O)O[C@H]3C[C@@H](c4ccoc4)C(C)=C3[C@]12C | inactive | inactive | inactive | inactive | inactive |  |
| COC(=O)C[C@H]1[C@](C)(C2=C(C)[C@H](c3ccoc3)C[C@@H]2OC(C)=O)[C@H](OC(=O)c2ccccc2)[C@@H]2OC[C@]3(C)[C@H](OC(C)=O)C[C@H](OC(C)=O)[C@@]1(C)[C@@H]23 | inactive | inactive | inactive | inactive | inactive |  |
| COC(=O)C[C@H]1[C@]2(C)C3=C(C)[C@H](c4ccoc4)C[C@H]3O[C@@H]2[C@H](OC(C)=O)[C@H]2[C@](C)(C=O)[C@H](O)C[C@H](OC(=O)c3ccccc3)[C@@]21C | inactive | inactive | inactive | inactive | inactive |  |
| CO[C@@H]1O[C@@H]([C@H](O)C(C)(C)O)C[C@H]1[C@@H]1CC[C@]2(C)C3=CC[C@H]4C(C)(C)[C@@H](O)CC[C@]4(C)[C@H]3CC[C@@]12C | inactive | inactive | inactive | inactive | inactive |  |
| COC(=O)C[C@H]1[C@]2(C)C3=C(C)[C@H](c4ccoc4)C[C@H]3O[C@@H]2[C@@H]2OC[C@]3(C)[C@H](OC(=O)/C=C/c4ccccc4)C[C@H](OC(=O)c4ccccc4)[C@@]1(C)[C@@H]23 | inactive | inactive | inactive | inactive | inactive |  |
| COC(=O)C[C@H]1[C@](C)(C2=C(C)[C@H](c3ccoc3)C[C@H]2OC)[C@H](OC(=O)c2ccccc2)[C@@H]2OC[C@]3(C)[C@H](OC(C)=O)C[C@H](OC(C)=O)[C@@]1(C)[C@@H]23 | inactive | inactive | inactive | inactive | inactive |  |
| COC(=O)C[C@H]1[C@]2(C)C3=C(C)[C@H](c4ccoc4)C[C@H]3O[C@@H]2[C@@H]2OC[C@]3(C)[C@H](OC(=O)c4ccccc4)C[C@H](OC(=O)c4ccccc4)[C@@]1(C)[C@@H]23 | inactive | inactive |  | inactive | inactive | 0.3 |
| CC(=O)O[C@H]1[C@@H](OC(=O)c2ccccc2)[C@@]2(C)C3=CC[C@@H](c4ccoc4)[C@]3(C)[C@@H](OC(C)=O)C[C@@H]2[C@@]2(C)[C@@H](O)C[C@@H](OC(C)=O)[C@](C)(C=O)[C@H]12 | inactive | inactive | inactive | inactive | inactive |  |
| CC(C)=CCC[C@H]1C(=O)O[C@H]2C[C@]3(C)C4=CC(=O)[C@H]5C(C)(C)[C@@H](O)CC[C@]5(C)[C@H]4CC[C@@]3(C)[C@@H]21 | inactive | inactive | inactive | inactive | inactive |  |
| CC(=O)O[C@H]1C[C@@H](OC(C)=O)[C@@]2(C)CO[C@H]3[C@@H](OC(=O)c4ccccc4)[C@@]4(C)C5=C(C)[C@H](c6ccoc6)C[C@@H]5O[C@@H](O)C[C@@H]4[C@]1(C)[C@@H]32 | inactive | inactive | inactive | inactive | inactive |  |
